For 46 molecules, IC50 results are on record in patent publication US20230391739A1, “ARYL DERIVATIVES FOR TREATING TRPM3 MEDIATED DISORDERS” (Katholieke Universiteit Leuven, priority 2020, published 2023).

The target of this assay is T1, mouse TRPM3α2 (mTRPM3) ion channel (Mus musculus, UniProt J9SQF3).
T1 construct: expressed in transfected cells; host or cells: flip-in HEK293
The experiment in a line: TRPM3 ion channel driven Ca2+ uptake, Fluo-4 AM assay, PS-stimulated (mTRPM3). In kind it is cell-based. As to conditions: TRPM3 overexpressing flip-in HEK293 cells stimulated with Pregnenolone sulfate (PS) 50 μM, activity ranges A, B, C. The method, boiled down: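 Flp-In HEK293 cells overexpressing mTRPM3α2 were added, in Ca²⁺-free Krebs, to wells already holding compound and 50 μM pregnenolone sulfate in Ca²⁺-containing Krebs. Fluo-4 AM fluorescence (ex 485/em 535 nm) was read immediately. Percent inhibition was computed from RFU relative to PS/vehicle wells and a positive-control inhibitor.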

pIC50: −log10 of the molar value.

One may read the pIC50 as the IC50 on a negative log10 scale, so that one unit is a factor of ten.

T1 sequence (J9SQF3 1-1709 isoform J9SQF3-12): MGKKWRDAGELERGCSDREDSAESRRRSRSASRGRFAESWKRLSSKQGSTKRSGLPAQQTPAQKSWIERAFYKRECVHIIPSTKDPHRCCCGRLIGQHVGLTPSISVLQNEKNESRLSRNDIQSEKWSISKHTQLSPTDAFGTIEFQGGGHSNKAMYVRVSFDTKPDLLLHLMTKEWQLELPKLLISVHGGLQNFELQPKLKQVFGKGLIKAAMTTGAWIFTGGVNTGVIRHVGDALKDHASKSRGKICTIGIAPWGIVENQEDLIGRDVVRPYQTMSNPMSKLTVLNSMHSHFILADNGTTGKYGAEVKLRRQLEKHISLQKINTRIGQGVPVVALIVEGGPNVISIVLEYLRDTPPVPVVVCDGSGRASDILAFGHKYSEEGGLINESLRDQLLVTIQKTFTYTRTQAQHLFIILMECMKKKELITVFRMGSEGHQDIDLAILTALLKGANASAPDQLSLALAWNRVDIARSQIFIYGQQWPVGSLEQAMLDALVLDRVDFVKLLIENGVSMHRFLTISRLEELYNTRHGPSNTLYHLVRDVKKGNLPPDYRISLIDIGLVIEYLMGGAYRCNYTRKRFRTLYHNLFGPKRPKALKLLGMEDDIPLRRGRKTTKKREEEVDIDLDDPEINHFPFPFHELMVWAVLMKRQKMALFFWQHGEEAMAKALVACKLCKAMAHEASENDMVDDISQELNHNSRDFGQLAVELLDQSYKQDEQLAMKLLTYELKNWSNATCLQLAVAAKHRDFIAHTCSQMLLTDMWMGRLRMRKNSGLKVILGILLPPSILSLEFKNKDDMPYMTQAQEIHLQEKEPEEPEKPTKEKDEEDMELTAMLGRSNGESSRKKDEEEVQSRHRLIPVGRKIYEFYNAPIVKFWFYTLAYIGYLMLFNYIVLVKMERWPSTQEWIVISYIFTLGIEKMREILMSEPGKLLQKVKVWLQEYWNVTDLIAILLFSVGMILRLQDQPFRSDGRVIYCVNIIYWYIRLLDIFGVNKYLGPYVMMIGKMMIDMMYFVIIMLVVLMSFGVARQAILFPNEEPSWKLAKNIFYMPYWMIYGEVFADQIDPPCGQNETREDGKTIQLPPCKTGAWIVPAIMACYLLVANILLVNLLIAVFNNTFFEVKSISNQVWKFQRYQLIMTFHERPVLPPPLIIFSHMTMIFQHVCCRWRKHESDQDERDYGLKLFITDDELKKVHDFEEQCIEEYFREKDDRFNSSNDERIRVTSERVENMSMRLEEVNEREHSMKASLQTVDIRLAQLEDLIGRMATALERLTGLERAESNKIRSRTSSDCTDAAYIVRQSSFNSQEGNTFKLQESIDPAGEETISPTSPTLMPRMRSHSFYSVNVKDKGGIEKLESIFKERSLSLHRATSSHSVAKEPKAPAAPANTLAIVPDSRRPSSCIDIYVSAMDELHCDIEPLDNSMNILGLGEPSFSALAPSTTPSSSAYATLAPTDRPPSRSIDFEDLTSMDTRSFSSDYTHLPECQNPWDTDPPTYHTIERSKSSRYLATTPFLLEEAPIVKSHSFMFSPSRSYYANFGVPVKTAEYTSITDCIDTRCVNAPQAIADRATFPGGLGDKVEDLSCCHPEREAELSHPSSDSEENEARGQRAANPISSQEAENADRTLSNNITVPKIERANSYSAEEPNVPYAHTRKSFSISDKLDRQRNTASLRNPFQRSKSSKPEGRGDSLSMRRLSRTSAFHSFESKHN

Turning to `O=C(O)c1c(C2CCCC2)oc2ccc(OCc3ccccc3)cc12` [Cpd 023, 5-(benzyloxy)-2-cyclopentylbenzofuran-3-carboxylic acid], the pIC50 is less than 4.70. On to `Cc1oc2ccc(OCc3ccccc3C(F)(F)F)cc2c1C(=O)O` [Cpd 024, 2-methyl-5-((2-(trifluoromethyl)benzyl)oxy)benzofuran-3-carboxylic acid], for which the pIC50 is greater than 6.00. The same measure for `Cc1oc2ccc(OCc3cccc(C(F)(F)F)c3)cc2c1C(=O)O` [Cpd 025, 2-methyl-5-((3-(trifluoromethyl)benzyl)oxy)benzofuran-3-carboxylic acid]: 4.70 to 6.00. The same measure for `Cc1oc2ccc(OCc3ccc(C(F)(F)F)cc3)cc2c1C(=O)O` [Cpd 026, 2-methyl-5-((4-(trifluoromethyl)benzyl)oxy)benzofuran-3-carboxylic acid]: less than 4.70; for `Cc1oc2ccc(OCc3cccc(OC(F)(F)F)c3)cc2c1C(=O)O` [Cpd 028, 2-methyl-5-((3-(trifluoromethoxy)benzyl)oxy)benzofuran-3-carboxylic acid]: less than 4.70; for `CCOC(=O)c1coc2ccc(OCc3ccccc3)cc12` [Cpd 029, ethyl 5-(benzyloxy)benzofuran-3-carboxylate]: less than 4.70.

For `Cc1oc2ccc(OCc3ccccc3)cc2c1C(N)=O` [Cpd 035, 5-(benzyloxy)-2-methylbenzofuran-3-carboxamide], the pIC50 was greater than 6.00. The figure for `Cc1oc2ccc(OCc3ccccc3)cc2c1C(=O)NO` [Cpd 036, 5-(benzyloxy)-N-hydroxy-2-methylbenzofuran-3-carboxamide] is greater than 6.00; for `Cc1oc2ccc(OCc3cccc(F)c3)cc2c1C(N)=O` [Cpd 037, 5-((3-fluorobenzyl)oxy)-2-methylbenzofuran-3-carboxamide] it is less than 4.70. The figure for `CCNC(=O)c1c(C)oc2ccc(OCc3ccccc3)cc12` [Cpd 038, 5-(benzyloxy)-N-ethyl-2-methylbenzofuran-3-carboxamide] is 4.70 to 6.00; for `Cc1oc2ccc(OCc3ccccc3)cc2c1C(=O)NC1CC1` [Cpd 039, 5-(benzyloxy)-N-cyclopropyl-2-methylbenzofuran-3-carboxamide] it is 4.70 to 6.00; for `CCCNC(=O)c1c(C)oc2ccc(OCc3ccccc3)cc12` [Cpd 040, 5-(benzyloxy)-2-methyl-N-propylbenzofuran-3-carboxamide] it is 4.70 to 6.00. The same measure for `Cc1oc2ccc(OCc3c(F)cccc3Cl)cc2c1C(N)=O` [Cpd 041, 5-((2-chloro-6-fluorobenzyl)oxy)-2-methylbenzofuran-3-carboxamide]: greater than 6.00; for `Cc1oc2ccc(OCc3ccccc3)cc2c1C(=O)NC1CNC1` [Cpd 042, N-(azetidin-3-yl)-5-(benzyloxy)-2-methylbenzofuran-3-carboxamide]: less than 4.70.

Turning to `Cc1oc2ccc(OCc3ccccc3)cc2c1C(=O)NC1COC1` [Cpd 043, 5-(benzyloxy)-2-methyl-N-(oxetan-3-yl)benzofuran-3-carboxamide], the pIC50 was greater than 6.00. The figure for `COCCNC(=O)c1c(C)oc2ccc(OCc3ccccc3)cc12` [Cpd 044, 5-(benzyloxy)-N-(2-methoxyethyl)-2-methylbenzofuran-3-carboxamide] is 4.70 to 6.00. The figure for `CNC(=O)c1c(C)oc2ccc(OCc3c(F)cccc3Cl)cc12` [Cpd 045, 5-((2-chloro-6-fluorobenzyl)oxy)-N,2-dimethylbenzofuran-3-carboxamide] is greater than 6.00.

`Cc1oc2ccc(OCc3ccccc3)cc2c1C(=O)NC1CCCC1` [Cpd 046, 5-(benzyloxy)-N-cyclopentyl-2-methylbenzofuran-3-carboxamide]: the pIC50 is greater than 6.00. In turn, `Cc1oc2ccc(OCc3ccccc3)cc2c1C(=O)N1CCCCC1` [Cpd 047, (5-(benzyloxy)-2-methylbenzofuran-3-yl)(piperidin-1-yl)methanone] had a pIC50 of less than 4.70. The figure for `Cc1oc2ccc(OCc3ccccc3)cc2c1C(=O)N[C@@H]1CCNC1` [Cpd 048, (R)-5-(benzyloxy)-2-methyl-N-(pyrrolidin-3-yl)benzofuran-3-carboxamide] is greater than 6.00; for `Cc1oc2ccc(OCc3ccccc3)cc2c1C(=O)N[C@H]1CCNC1` [Cpd 049, (S)-5-(benzyloxy)-2-methyl-N-(pyrrolidin-3-yl)benzofuran-3-carboxamide] it is greater than 6.00; for `Cc1oc2ccc(OCc3ccccc3)cc2c1C(=O)N1CCOCC1` [Cpd 050, (5-(benzyloxy)-2-methylbenzofuran-3-yl)(morpholino)methanone] it is less than 4.70.

For the molecule `Cc1oc2ccc(OCc3ccccc3)cc2c1C(=O)NC1CCOC1` (stereo not shown) [Cpd 051, 5-(benzyloxy)-2-methyl-N-(tetrahydrofuran-3-yl)benzofuran-3-carboxamide], the pIC50 was greater than 6.00. The same measure for `Cc1oc2ccc(OCc3ccccc3)cc2c1C(=O)NC1CC(O)C1` (stereo not shown) [Cpd 052, 5-(benzyloxy)-N-(3-hydroxycyclobutyl)-2-methylbenzofuran-3-carboxamide]: greater than 6.00; for `Cc1oc2ccc(OCc3ccccc3)cc2c1C(=O)N[C@H]1C[C@H](O)C1` [Cpd 053, 5-(benzyloxy)-N-(trans-3-hydroxycyclobutyl)-2-methylbenzofuran-3-carboxamide]: greater than 6.00; for `Cc1oc2ccc(OCc3ccccc3)cc2c1C(=O)N[C@H]1C[C@@H](O)C1` [Cpd 054, 5-(benzyloxy)-N-(cis-3-hydroxycyclobutyl)-2-methylbenzofuran-3-carboxamide]: greater than 6.00.

`Cc1oc2ccc(OCc3ccccc3)cc2c1C(=O)NCCN(C)C` [Cpd 055, 5-(benzyloxy)-N-(2-(dimethylamino)ethyl)-2-methylbenzofuran-3-carboxamide] showed a pIC50 of 4.70 to 6.00. In turn, `COCCCNC(=O)c1c(C)oc2ccc(OCc3ccccc3)cc12` [Cpd 056, 5-(benzyloxy)-N-(3-methoxypropyl)-2-methylbenzofuran-3-carboxamide] showed a negative logarithm of the IC50 (pIC50) of 4.70 to 6.00. The same measure for `Cc1oc2ccc(OCc3ccccc3)cc2c1C(=O)NCC(O)CO` (stereo not shown) [Cpd 057, 5-(benzyloxy)-N-(2,3-dihydroxypropyl)-2-methylbenzofuran-3-carboxamide]: greater than 6.00; for `Cc1oc2ccc(OCc3ccccc3)cc2c1C(=O)Nc1ccccc1` [Cpd 058, 5-(benzyloxy)-2-methyl-N-phenylbenzofuran-3-carboxamide]: greater than 6.00; for `Cc1oc2ccc(OCc3ccccc3)cc2c1C(=O)Nc1cccnc1` [Cpd 059, 5-(benzyloxy)-2-methyl-N-(pyridin-3-yl)benzofuran-3-carboxamide]: greater than 6.00.

Turning to `Cc1oc2ccc(OCc3ccccc3)cc2c1C(=O)Nc1ccncc1` [Cpd 060, 5-(benzyloxy)-2-methyl-N-(pyridin-4-yl)benzofuran-3-carboxamide], the negative logarithm of the IC50 (pIC50) was greater than 6.00.

`Cc1oc2ccc(OCc3ccccc3)cc2c1C(=O)Nc1cnccn1` [Cpd 061, 5-(benzyloxy)-2-methyl-N-(pyrazin-2-yl)benzofuran-3-carboxamide] showed a pIC50 greater than 6.00.

`Cc1oc2ccc(OCc3ccccc3)cc2c1C(=O)Nc1cccnn1` [Cpd 062, 5-(benzyloxy)-2-methyl-N-(pyridazin-3-yl)benzofuran-3-carboxamide] gave a pIC50 of less than 4.70. The figure for `Cc1oc2ccc(OCc3ccccc3)cc2c1C(=O)NS(C)(=O)=O` [Cpd 063, 5-(benzyloxy)-2-methyl-N-(methylsulfonyl)benzofuran-3-carboxamide] is 4.70 to 6.00. The figure for `Cc1oc2ccc(OCc3ccccc3)cc2c1C(=O)Nc1ccn(C)n1` [Cpd 064, 5-(benzyloxy)-2-methyl-N-(1-methyl-1H-pyrazol-3-yl)benzofuran-3-carboxamide] is greater than 6.00; for `Cc1oc2ccc(OCc3c(F)cccc3Cl)cc2c1C(=O)N(C)C` [Cpd 065, 5-((2-chloro-6-fluorobenzyl)oxy)-N,N,2-trimethylbenzofuran-3-carboxamide] it is 4.70 to 6.00; for `Cc1oc2ccc(OCc3ccccc3)cc2c1C(=O)NC1CCCCC1` [Cpd 066, 5-(benzyloxy)-N-cyclohexyl-2-methylbenzofuran-3-carboxamide] it is greater than 6.00. The same measure for `Cc1oc2ccc(OCc3ccccc3)cc2c1C(=O)N1CCC(C)CC1` [Cpd 067, (5-(benzyloxy)-2-methylbenzofuran-3-yl)(4-methylpiperidin-1-yl)methanone]: 4.70 to 6.00. `Cc1oc2ccc(OCc3ccccc3)cc2c1C(=O)NC1CNC(=O)C1` (stereo not shown) [Cpd 068, 5-(benzyloxy)-2-methyl-N-(5-oxopyrrolidin-3-yl)benzofuran-3-carboxamide] had a pIC50 of 4.70 to 6.00. The same measure for `Cc1oc2ccc(OCc3ccccc3)cc2c1C(=O)N[C@H]1CCNC1=O` [Cpd 069, (S)-5-(benzyloxy)-2-methyl-N-(2-oxopyrrolidin-3-yl)benzofuran-3-carboxamide]: greater than 6.00; for `Cc1oc2ccc(OCc3ccccc3)cc2c1C(=O)N[C@@H]1CCNC1=O` [Cpd 070, 5-(benzyloxy)-2-methyl-N-(2-oxopyrrolidin-3-yl)benzofuran-3-carboxamide]: greater than 6.00.

On to `Cc1oc2ccc(OCc3ccccc3)cc2c1C(=O)NC1CCNC1=O` (stereo not shown) [Cpd 071, 5-(benzyloxy)-2-methyl-N-(2-oxopyrrolidin-3-yl)benzofuran-3-carboxamide], for which the pIC50 was greater than 6.00. Molecule `Cc1oc2ccc(OCc3ccccc3)cc2c1C(=O)N1CCN(C)CC1` [Cpd 072, (5-(benzyloxy)-2-methylbenzofuran-3-yl)(4-methylpiperazin-1-yl)methanone] showed a pIC50 of less than 4.70. The figure for `Cc1oc2ccc(OCc3ccccc3)cc2c1C(=O)N1CCC(N)CC1` [Cpd 073, (4-aminopiperidin-1-yl)(5-(benzyloxy)-2-methylbenzofuran-3-yl)methanone] is less than 4.70.

With `Cc1oc2ccc(OCc3ccccc3)cc2c1C(=O)NC1CCNCC1` [Cpd 074, 5-(benzyloxy)-2-methyl-N-(piperidin-4-yl)benzofuran-3-carboxamide], the pIC50 was greater than 6.00.
